Assay results published in US20040175382A1, “Methods of using and compositions comprising selective cytokine inhibitory drugs for the treatment and management of disorders of the central nervous system” (priority 2003, published 2004).

Tests used:
[1] = cardiovascular and respiratory function in anesthetized dogs; format: in vivo; conditions: anesthetized Beagle dogs; 400, 800 and 1,200 mg/kg/day ascending doses, infusion through the jugular vein
Protocol: The effects of 3-(3,4-dimethoxy-phenyl)-3-(1-oxo-1,3-dihydro-isoindol-2-yl)-propionamide on cardiovascular and respiratory function are investigated in anesthetized dogs. Two groups of Beagle dogs (2/sex/group) are used. One group receives three doses of vehicle only and the other receives three ascending doses of 3-(3,4-dimethoxy-phenyl)-3-(1-oxo-1,3-dihydro-isoindol-2-yl)-propionamide (400, 800, and 1,200 mg/kg/day). In all cases, doses of 3-(3,4-dimethoxy-phenyl)-3-(1-oxo-1,3-dihydro-isoindol-2-yl)-propionamide or vehicle are successively administered via infusion through the jugular vein separated by intervals of at least 30 minutes.

[2] = test system: TNF-α production following LPS-stimulation of human PBMC and human whole blood; assay: in vitro pharmacological activity profile, comparison with thalidomide (cytokine production); format: cell-based
Protocol: The pharmacological properties of 3-(3,4-dimethoxy-phenyl)-3-(1-oxo-1,3-dihydro-isoindol-2-yl)-propionamide, including activity comparisons with thalidomide, are characterized in in vitro studies. Studies examine the effects of 3-(3,4-dimethoxy-phenyl)-3-(1-oxo-1,3-dihydro-isoindol-2-yl)-propionamide on the production of various cytokines. In addition, a safety pharmacology study of 3-(3,4-dimethoxy-phenyl)-3-(1-oxo-1,3-dihydro-isoindol-2-yl)-propionamide is conducted in dogs and the effects of the compound on ECG parameters are examined further as part of three repeat-dose toxicity studies in primates.
Inhibition of TNF-α production following LPS-stimulation of human PBMC and human whole blood by 3-(3,4-dimethoxy-phenyl)-3-(1-oxo-1,3-dihydro-isoindol-2-yl)-propionamide is investigated in vitro (Muller et al., Bioorg. Med. Chem. Lett. 9:1625-1630, 1999). The IC50's of 3-(3,4-dimethoxy-phenyl)-3-(1-oxo-1,3-dihydro-isoindol-2-yl)-propionamide for inhibiting production of TNF-α following LPS-stimulation of PBMC and human whole blood is measured.
The pharmacological effects of 3-(3,4-dimethoxy-phenyl)-3-(1-oxo-1,3-dihydro-isoindol-2-yl)-propionamide derive from its action as an inhibitor of cellular response to receptor-initiated trophic signals (e.g., IGF-1, VEGF, cyclooxygenase-2), and other activities.

[3] = test system: CBP+/− mutant mice; conditions: cited from earlier work
[4] = test system: rat mesencephalonic neurons; conditions: in the presence of the adenylate cyclase activator forskolin; cited from earlier work
[5] = test system: patients with PD; conditions: cited from earlier work

COc1ccc(C(CC(N)=O)N2Cc3ccccc3C2=O)cc1OC (stereo not drawn) [3-(3,4-dimethoxy-phenyl)-3-(1-oxo-1,3-dihydro-isoindol-2-yl)-propionamide]
cardiovascular and respiratory changes compared to the vehicle control group [1]: minimal at all doses
effect on generation of inflammatory cytokines ([2]; in vitro): suppresses the generation of inflammatory cytokines
potency relative to thalidomide (times more potent) ([2]; in vitro studies, pharmacological activity profile similar to thalidomide): 5 to 50 times

COc1ccc([C@H]2CNC(=O)[C@H](Cc3cccc(C)c3)C2)cc1OC1CCCC1 [HT0712]
long-term memory defects [3]: abolished the long-term memory defects

CCCCOc1cc(CC2CNC(=O)N2)ccc1OC (stereo not drawn) [Ro-20 1724]
uptake of dopamine [4]: stimulate uptake of dopamine

COc1ccc(C2CNC(=O)C2)cc1OC1CCCC1 (stereo not drawn) [Rolipram]
long-term memory defects [3]: abolished the long-term memory defects
dose-limiting side effect ([5]; Phase II trials of PD): nausea
deterioration of the therapeutic action of dopamine against Lisuride ([5]; double-blind trial versus placebo, patients with PD already under treatment, 3 mg per day): no significant deterioration

COCCOc1cc(OCCOC)cc(-c2nc(C)cc3cc(OC)c(OC)cc23)c1 [SDZ-MNS 949]
uptake of dopamine [4]: stimulate uptake of dopamine
